Format in all cases: functional
Design in all cases: scale not given: the % may be the effect or the level left

Test [1] has as its system Rodentolepis nana. The experiment in a line: Anthelmintic activity against Hymenolepis nana infected in mouse assessed as reduction in worm burden at 25 mg/kg administered bid for 3 days relative to control.
The test system of test [2] is Rodentolepis nana. The experiment in a line: Anthelmintic activity against Hymenolepis nana infected in mouse assessed as reduction in worm burden at 50 mg/kg administered bid for 3 days relative to control.
The subject of test [3] is Rodentolepis nana. Put plainly: Anthelmintic activity against Hymenolepis nana infected in mouse assessed as reduction in worm burden at 100 mg/kg administered bid for 3 days relative to control.
The test system of test [4] is Rodentolepis nana. The experiment in a line: Anthelmintic activity against Hymenolepis nana infected in mouse assessed as reduction in worm burden at 300 mg/kg administered bid for 3 days relative to control.

Molecules are shown by their SMILES. The source made the active and inactive calls. The rule behind the calls is not given here.

With `CCCCc1ccc(Nc2cc(C)nc3ccc4nc[nH]c4c23)cc1Cl`, the results for the Activity in test [1], in test [2] and in test [3] were 65%, 100% and 100%, respectively.
For the compound `COc1ccc(Nc2cc(C)nc3ccc4nc[nH]c4c23)cc1`, the result in test [2] was inactive. The Activity in test [3] is listed as 64%.
As for `Cc1cc(Nc2ccc3c(c2)OCO3)c2c(ccc3nc[nH]c32)n1`, the Activity in test [4] stood at 100%. In addition, the result in test [3] was inactive.
As for `Cc1cc(Nc2cccc(N(C)C)c2)c2c(ccc3nc[nH]c32)n1`, in test [1], the result was inactive. For the same compound, the Activity in test [2] worked out at 87%; in test [3] it was 100%.
Turning to `CCOc1ccc(OC)c(Nc2cc(C)nc3ccc4nc[nH]c4c23)c1`, the result in test [1] was inactive. The Activity in test [2] came out at 89%; in test [3] it was 100%.
As to `CCOc1ccc(Nc2cc(C)nc3ccc4nc[nH]c4c23)cc1OCC`, the outcome in test [1] was inactive. For the same compound, the Activity in test [2] is reported as 84%; in test [3], 100%.
Regarding `CCN(CC)CCOc1ccc(Nc2cc(C)nc3ccc4nc[nH]c4c23)cc1`, in test [4], the Activity turned out to be 100%. The result in test [3] was inactive.
For the compound `CSc1cccc(Nc2cc(C)nc3ccc4nc[nH]c4c23)c1`, the outcome in test [2] was inactive. The Activity in test [3] is recorded as 100%.
In the case of `Cc1cc(Nc2ccc(N(C)C)c(Cl)c2)c2c(ccc3nc[nH]c32)n1`, the outcome in test [2] was inactive. The Activity in test [3] stood at 71%.
Turning to `Cc1cc(Nc2cccc(Nc3ccc(N4CCN(C)CC4)nc3)c2)c2c(ccc3nc[nH]c32)n1`, the Activity in test [4] came to 64%. Moreover, the outcome in test [3] was inactive.
As to `COc1ccc(Nc2cccc(Nc3cc(C)nc4ccc5nc[nH]c5c34)c2)cn1`, the result in test [1] was inactive. The Activity in test [2] amounted to 94%; in test [3], 100%.
Turning to `CCOc1ccc(OCC)c(Nc2cc(C)nc3ccc4nc[nH]c4c23)c1`, in test [1], the outcome was inactive. Further, the Activity in test [2] and in test [3] was 100% throughout.
Turning to `CCCCCOc1ccc(Nc2cc(C)nc3ccc4nc[nH]c4c23)cc1OCCCCC`, the outcome in test [2] was inactive. Moreover, the Activity in test [3] was 63%.
On to `CCOc1ccc(Nc2cc(C)nc3ccc4nc[nH]c4c23)cc1`, for which the result in test [2] was inactive. In addition, in test [3], the Activity came to 100%.
As to `Cc1cc(Nc2ccc(Cl)c(Cl)c2)c2c(ccc3nc[nH]c32)n1`, the outcome in test [2] was inactive. Further, the Activity in test [3] is reported as 65%.
In the case of `Cc1cc(Nc2ccc(C)c([N+](=O)[O-])c2)c2c(ccc3nc[nH]c32)n1`, in test [4], the Activity stood at 83%. Besides, in test [3], the outcome was inactive.
For `Cc1cc(Nc2ccc(N3CCN(C)CC3)cc2)c2c(ccc3nc[nH]c32)n1` the same measures were 80% and “inactive”.
The like results for `CCCC(=O)c1ccc(Nc2cc(C)nc3ccc4nc[nH]c4c23)cc1` were, in that order, 100% and “inactive”.
With `Cc1cc(Nc2cccc3ccccc23)c2c(ccc3nc[nH]c32)n1`, the result in test [2] was inactive. Moreover, in test [3], the Activity was 100%.
With `Cc1cc(Nc2ccc(C)c(Cl)c2)c2c(ccc3nc[nH]c32)n1`, the result in test [1] was inactive. In addition, the Activity in test [2] stood at 90%; in test [3] it was 94%.
For `Cc1cc(Nc2ccc(Cl)c(C(F)(F)F)c2)c2c(ccc3nc[nH]c32)n1` the same measures were “inactive”, 87% and 84%.
As to `COc1cc(Nc2cc(C)nc3ccc4nc[nH]c4c23)cc(OC)c1OC`, in test [2], the outcome was inactive. The Activity in test [3] is 70%.
On to `CCC(=O)c1ccc(Nc2cc(C)nc3ccc4nc[nH]c4c23)cc1`, for which the result in test [1] was inactive. In addition, the Activity in test [2] is on record as 78%; in test [3], 75%.
Consider `CCCCOc1ccc(Nc2cc(C)nc3ccc4nc[nH]c4c23)cc1OCCCC`, for which the outcome in test [1] was inactive. Also, the Activity in test [2] came out at 95%; in test [3], 100%.
As to `COc1cc(OC)c(Nc2cc(C)nc3ccc4nc[nH]c4c23)cc1Cl`, in test [1], the result was inactive. Further, the Activity in test [2] is listed as 82%; in test [3], 85%.
With `Cc1cc(Nc2ccc(N(C)C)cc2)c2c(ccc3nc[nH]c32)n1`, the outcome in test [2] was inactive. Further, in test [3], the Activity came to 100%.
On to `CCOc1cc(OCC)c(OCC)cc1Nc1cc(C)nc2ccc3nc[nH]c3c12`, for which the outcome in test [1] was inactive. Moreover, the Activity came to 80% in test [2] and 89% in test [3].
With `Cc1cc(Nc2ccc(N3CCCCC3)cc2)c2c(ccc3nc[nH]c32)n1`, the result in test [1] was inactive. Besides, the Activity in test [2] is reported as 62%; in test [3] it was 64%.
Take `CCOc1cc(Nc2cc(C)nc3ccc4nc[nH]c4c23)c(OCC)cc1Cl`: in test [1], the result was inactive. Also, the Activity in test [2] and in test [3] was 100% throughout.
With `CCOc1ccc(Nc2cc(C)nc3ccc4nc[nH]c4c23)cc1Cl`, in test [1], the outcome was inactive. Also, the Activity stood at 50% in test [2] and 100% in test [3].
For the compound `Cc1cc(Nc2ccccc2)c2c(ccc3nc[nH]c32)n1`, the Activity in test [3] turned out to be 40%.
With `CCc1ccc(Nc2cc(C)nc3ccc4nc[nH]c4c23)cc1Cl`, the outcome in test [1] was inactive. The results for the Activity in test [2] and in test [3] were 93% and 100%, respectively.
Regarding `Cc1cc(Nc2cccc(Cl)c2C)c2c(ccc3nc[nH]c32)n1`, the outcome in test [1] was inactive. Moreover, the Activity stood at 94% in test [2] and 100% in test [3].
For the compound `Cc1cc(Nc2ccc(OC(C)C)c(OC(C)C)c2)c2c(ccc3nc[nH]c32)n1`, the result in test [1] was inactive. Moreover, the results for the Activity in test [2] and in test [3] were 94% and 100%, respectively.
For `Cc1cc(Nc2ccc(N3CCCC3)c(Cl)c2)c2c(ccc3nc[nH]c32)n1` the same measures were “inactive”, 46% and 100%.
For the compound `Cc1cc(Nc2ccc(I)cc2)c2c(ccc3nc[nH]c32)n1`, the result in test [2] was inactive. In addition, the Activity in test [3] was 84%.
Turning to `COc1ccccc1Nc1cc(C)nc2ccc3nc[nH]c3c12`, in test [2], the outcome was inactive. Further, in test [3], the Activity is 66%.
For the compound `CCc1cc(Nc2ccc(OC)cc2)c2c(ccc3nc[nH]c32)n1`, in test [2], the result was inactive. The Activity in test [3] amounted to 46%.
For `CSc1ccc(Nc2cc(C)nc3ccc4nc[nH]c4c23)cc1` the same measures were 62% and 100%.
As to `COc1cc(Cl)ccc1Nc1cc(C)nc2ccc3nc[nH]c3c12`, the outcome in test [2] was inactive. Moreover, the Activity in test [3] worked out at 52%.
On to `Cc1cc(Nc2ccc(Oc3ccccc3)cc2)c2c(ccc3nc[nH]c32)n1`, for which, in test [1], the result was inactive. The Activity is given as 66% in test [2] and 100% in test [3].
In the case of `COc1ccc(OC)c(Nc2cc(C)nc3ccc4nc[nH]c4c23)c1`, the outcome in test [2] was inactive. Further, in test [3], the Activity was determined as 100%.
`CCC(C)c1ccc(Nc2cc(C)nc3ccc4nc[nH]c4c23)cc1` (centres undefined): in test [2], the outcome was inactive. Also, in test [3], the Activity turned out to be 100%.
Consider `Cc1cc(Nc2ccc(Cl)cc2C)c2c(ccc3nc[nH]c32)n1`, for which, in test [2], the outcome was inactive. For the same compound, in test [3], the Activity turned out to be 100%.
As for `Cc1cc(Nc2ccc(-c3ccccc3)cc2)c2c(ccc3nc[nH]c32)n1`, the result in test [1] was inactive. In addition, the Activity amounted to 94% in test [2] and 100% in test [3].
In the case of `Cc1cc(Nc2ccc(Br)cc2)c2c(ccc3nc[nH]c32)n1`, the result in test [2] was inactive. Further, the Activity in test [3] is 61%.
On to `Cc1cc(Nc2ccc(N3CCCCC3)c(Cl)c2)c2c(ccc3nc[nH]c32)n1`, for which the outcome in test [1] was inactive. The Activity stood at 80% in test [2] and 100% in test [3].
For the compound `COc1cccc(Nc2cc(C)nc3ccc4[nH]cnc4c23)c1`, the outcome in test [2] was inactive. Also, the Activity in test [3] worked out at 73%.
For the compound `Cc1cc(Nc2ccc(OCc3ccccc3)cc2)c2c(ccc3nc[nH]c32)n1`, the results for the Activity in test [2] and in test [3] were 64% and 81%, respectively.
Consider `Cc1cc(Nc2ccc(F)c(Cl)c2)c2c(ccc3nc[nH]c32)n1`, for which the outcome in test [2] was inactive. Besides, the Activity in test [3] turned out to be 82%.
The like results for `CCN(CC)c1ccc(Nc2cc(C)nc3ccc4nc[nH]c4c23)cc1` were, in that order, “inactive” and 79%.
Consider `COc1ccc(Nc2cc(C)nc3ccc4nc(-c5ccccc5)[nH]c4c23)cc1`, for which the outcome in test [2] was inactive. For the same compound, the Activity in test [3] is recorded as 94%.
For `CCOc1ccc(OC)cc1Nc1cc(C)nc2ccc3nc[nH]c3c12`, the result in test [1] was inactive. The Activity in test [2] was found to be 76%; in test [3] it was 100%.
In the case of `COc1ccc(Nc2cc(C)nc3ccc4nc[nH]c4c23)cc1OC`, the outcome in test [2] was inactive. Besides, the Activity in test [3] was found to be 73%.
Take `CC(=O)c1cccc(Nc2cc(C)nc3ccc4nc[nH]c4c23)c1`: in test [2], the outcome was inactive. Also, the Activity in test [3] was 96%.
For the compound `COc1ccc(Nc2cc(-c3ccccc3)nc3ccc4nc[nH]c4c23)cc1`, the result in test [2] was inactive. For the same compound, the Activity in test [3] is 66%.
`Cc1cc(Nc2ccc3ccccc3c2)c2c(ccc3nc[nH]c32)n1`: the outcome in test [2] was inactive. Moreover, the Activity in test [3] is recorded as 72%.
In the case of `Cc1cc(Nc2ccc(C(C)C)cc2)c2c(ccc3nc[nH]c32)n1`, the outcome in test [1] was inactive. For the same compound, the figures for the Activity in test [2] and in test [3] were 53% and 100%, respectively.

These data come from ChEMBL document CHEMBL3244292, “Imidazo[4,5-f]quinolines. 2. A series of 9-(substituted amino)imidazo[4,5-f]quinolines as antitapeworm agents” (1977).
